Tests used:
[1] = target: Lysine-specific demethylase 5A (Homo sapiens, UniProt P29375); test: Inhibition of recombinant human C-terminal FLAG-tagged JARID1A (1 to 1090 residues) expressed in baculovirus infected sf9 cells using H3K4me3-biotin peptide as substrate after 30 mins in presence of alpha-ketoglutaric acid by LANCE TR-FRET assay
[2] = target: T1, Lysine-specific demethylase 4C (Homo sapiens, UniProt Q9H3R0); test: Inhibition of recombinant human N-terminal GST-tagged JMJD2C (2 to 372 residues) expressed in baculovirus infected sf9 cells using H3K9me3-biotin peptide as substrate after 30 mins in presence of alpha-ketoglutaric acid by LANCE TR-FRET assay
T1 sequence (Q9H3R0 whole entry): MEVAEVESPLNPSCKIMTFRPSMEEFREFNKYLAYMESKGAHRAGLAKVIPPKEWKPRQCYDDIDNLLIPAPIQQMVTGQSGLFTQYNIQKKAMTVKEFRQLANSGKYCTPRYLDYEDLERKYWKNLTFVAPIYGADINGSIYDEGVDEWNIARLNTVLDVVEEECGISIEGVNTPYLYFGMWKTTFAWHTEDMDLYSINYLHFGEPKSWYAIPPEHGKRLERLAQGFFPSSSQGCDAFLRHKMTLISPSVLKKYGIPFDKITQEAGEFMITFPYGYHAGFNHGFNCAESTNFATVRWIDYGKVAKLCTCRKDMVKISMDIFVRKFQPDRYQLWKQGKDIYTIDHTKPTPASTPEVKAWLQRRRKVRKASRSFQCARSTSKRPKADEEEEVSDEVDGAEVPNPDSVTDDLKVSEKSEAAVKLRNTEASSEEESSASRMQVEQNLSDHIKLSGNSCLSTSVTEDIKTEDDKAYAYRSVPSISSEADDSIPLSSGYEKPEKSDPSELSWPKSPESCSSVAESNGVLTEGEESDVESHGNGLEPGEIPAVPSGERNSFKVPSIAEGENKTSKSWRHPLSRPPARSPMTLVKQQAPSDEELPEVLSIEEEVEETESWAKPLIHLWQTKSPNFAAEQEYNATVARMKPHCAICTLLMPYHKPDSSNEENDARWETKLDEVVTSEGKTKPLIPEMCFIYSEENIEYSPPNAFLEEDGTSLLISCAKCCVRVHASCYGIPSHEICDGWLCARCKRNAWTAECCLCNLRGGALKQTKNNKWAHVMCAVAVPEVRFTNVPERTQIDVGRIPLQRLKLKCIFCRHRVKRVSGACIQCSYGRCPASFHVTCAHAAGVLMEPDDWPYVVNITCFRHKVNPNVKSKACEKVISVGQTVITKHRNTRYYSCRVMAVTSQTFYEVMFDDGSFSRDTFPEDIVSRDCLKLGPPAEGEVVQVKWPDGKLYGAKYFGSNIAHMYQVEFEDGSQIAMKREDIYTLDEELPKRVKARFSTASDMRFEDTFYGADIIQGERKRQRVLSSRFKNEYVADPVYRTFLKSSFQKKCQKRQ

[3] = target: Lysine-specific demethylase 5B (Homo sapiens, UniProt Q9UGL1); test: Inhibition of recombinant human N-terminal His-FLAG tagged JARID1B (2 to 751 residues) expressed in baculovirus infected sf9 cells using H3K4me3-biotin peptide as substrate after 30 mins in presence of alpha-ketoglutaric acid by LANCE TR-FRET assay
Lysine-specific demethylase 5B, sequence (Q9UGL1 whole entry, the tested form may be a part): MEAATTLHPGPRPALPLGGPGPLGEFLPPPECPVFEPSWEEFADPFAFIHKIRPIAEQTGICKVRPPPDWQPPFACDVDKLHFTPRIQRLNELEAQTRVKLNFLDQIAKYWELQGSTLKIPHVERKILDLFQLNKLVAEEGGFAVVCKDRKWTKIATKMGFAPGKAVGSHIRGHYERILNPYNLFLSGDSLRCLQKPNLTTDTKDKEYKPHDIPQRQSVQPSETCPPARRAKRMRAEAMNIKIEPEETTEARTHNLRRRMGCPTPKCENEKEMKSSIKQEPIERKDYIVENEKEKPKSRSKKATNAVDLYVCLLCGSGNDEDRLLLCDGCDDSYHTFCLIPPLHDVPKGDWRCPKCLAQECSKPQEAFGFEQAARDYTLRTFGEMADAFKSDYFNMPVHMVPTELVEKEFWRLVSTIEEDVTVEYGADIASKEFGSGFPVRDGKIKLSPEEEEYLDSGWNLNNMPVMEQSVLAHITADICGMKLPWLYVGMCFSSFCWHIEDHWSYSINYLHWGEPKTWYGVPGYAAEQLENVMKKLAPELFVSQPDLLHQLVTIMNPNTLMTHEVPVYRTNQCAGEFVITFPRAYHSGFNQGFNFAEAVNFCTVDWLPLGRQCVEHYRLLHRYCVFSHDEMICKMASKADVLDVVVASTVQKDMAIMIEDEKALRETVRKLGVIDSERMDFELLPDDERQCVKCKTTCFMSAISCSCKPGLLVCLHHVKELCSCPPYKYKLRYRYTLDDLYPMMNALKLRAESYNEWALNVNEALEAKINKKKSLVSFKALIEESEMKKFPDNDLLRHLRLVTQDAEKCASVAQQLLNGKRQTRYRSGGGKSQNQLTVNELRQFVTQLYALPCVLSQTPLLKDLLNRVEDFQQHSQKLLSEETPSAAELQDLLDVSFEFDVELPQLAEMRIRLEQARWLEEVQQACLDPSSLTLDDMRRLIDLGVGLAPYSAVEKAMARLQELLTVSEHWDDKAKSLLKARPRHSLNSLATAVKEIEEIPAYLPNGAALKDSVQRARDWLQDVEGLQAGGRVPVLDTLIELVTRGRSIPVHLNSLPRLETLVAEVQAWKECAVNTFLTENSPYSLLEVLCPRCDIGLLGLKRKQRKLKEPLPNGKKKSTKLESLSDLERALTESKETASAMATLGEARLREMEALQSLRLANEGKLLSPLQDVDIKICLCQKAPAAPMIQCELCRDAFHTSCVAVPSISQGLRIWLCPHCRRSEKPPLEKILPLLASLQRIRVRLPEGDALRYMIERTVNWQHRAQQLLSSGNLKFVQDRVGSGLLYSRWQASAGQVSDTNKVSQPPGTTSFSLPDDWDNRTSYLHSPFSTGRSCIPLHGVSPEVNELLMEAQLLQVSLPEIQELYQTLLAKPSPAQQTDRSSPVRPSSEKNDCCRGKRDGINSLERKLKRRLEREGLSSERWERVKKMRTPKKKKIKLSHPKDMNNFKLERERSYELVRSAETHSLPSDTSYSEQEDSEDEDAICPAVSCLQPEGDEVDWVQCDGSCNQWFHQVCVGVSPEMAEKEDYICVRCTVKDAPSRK

Lysine-specific demethylase 5A, sequence (P29375 whole entry, the tested form may be a part): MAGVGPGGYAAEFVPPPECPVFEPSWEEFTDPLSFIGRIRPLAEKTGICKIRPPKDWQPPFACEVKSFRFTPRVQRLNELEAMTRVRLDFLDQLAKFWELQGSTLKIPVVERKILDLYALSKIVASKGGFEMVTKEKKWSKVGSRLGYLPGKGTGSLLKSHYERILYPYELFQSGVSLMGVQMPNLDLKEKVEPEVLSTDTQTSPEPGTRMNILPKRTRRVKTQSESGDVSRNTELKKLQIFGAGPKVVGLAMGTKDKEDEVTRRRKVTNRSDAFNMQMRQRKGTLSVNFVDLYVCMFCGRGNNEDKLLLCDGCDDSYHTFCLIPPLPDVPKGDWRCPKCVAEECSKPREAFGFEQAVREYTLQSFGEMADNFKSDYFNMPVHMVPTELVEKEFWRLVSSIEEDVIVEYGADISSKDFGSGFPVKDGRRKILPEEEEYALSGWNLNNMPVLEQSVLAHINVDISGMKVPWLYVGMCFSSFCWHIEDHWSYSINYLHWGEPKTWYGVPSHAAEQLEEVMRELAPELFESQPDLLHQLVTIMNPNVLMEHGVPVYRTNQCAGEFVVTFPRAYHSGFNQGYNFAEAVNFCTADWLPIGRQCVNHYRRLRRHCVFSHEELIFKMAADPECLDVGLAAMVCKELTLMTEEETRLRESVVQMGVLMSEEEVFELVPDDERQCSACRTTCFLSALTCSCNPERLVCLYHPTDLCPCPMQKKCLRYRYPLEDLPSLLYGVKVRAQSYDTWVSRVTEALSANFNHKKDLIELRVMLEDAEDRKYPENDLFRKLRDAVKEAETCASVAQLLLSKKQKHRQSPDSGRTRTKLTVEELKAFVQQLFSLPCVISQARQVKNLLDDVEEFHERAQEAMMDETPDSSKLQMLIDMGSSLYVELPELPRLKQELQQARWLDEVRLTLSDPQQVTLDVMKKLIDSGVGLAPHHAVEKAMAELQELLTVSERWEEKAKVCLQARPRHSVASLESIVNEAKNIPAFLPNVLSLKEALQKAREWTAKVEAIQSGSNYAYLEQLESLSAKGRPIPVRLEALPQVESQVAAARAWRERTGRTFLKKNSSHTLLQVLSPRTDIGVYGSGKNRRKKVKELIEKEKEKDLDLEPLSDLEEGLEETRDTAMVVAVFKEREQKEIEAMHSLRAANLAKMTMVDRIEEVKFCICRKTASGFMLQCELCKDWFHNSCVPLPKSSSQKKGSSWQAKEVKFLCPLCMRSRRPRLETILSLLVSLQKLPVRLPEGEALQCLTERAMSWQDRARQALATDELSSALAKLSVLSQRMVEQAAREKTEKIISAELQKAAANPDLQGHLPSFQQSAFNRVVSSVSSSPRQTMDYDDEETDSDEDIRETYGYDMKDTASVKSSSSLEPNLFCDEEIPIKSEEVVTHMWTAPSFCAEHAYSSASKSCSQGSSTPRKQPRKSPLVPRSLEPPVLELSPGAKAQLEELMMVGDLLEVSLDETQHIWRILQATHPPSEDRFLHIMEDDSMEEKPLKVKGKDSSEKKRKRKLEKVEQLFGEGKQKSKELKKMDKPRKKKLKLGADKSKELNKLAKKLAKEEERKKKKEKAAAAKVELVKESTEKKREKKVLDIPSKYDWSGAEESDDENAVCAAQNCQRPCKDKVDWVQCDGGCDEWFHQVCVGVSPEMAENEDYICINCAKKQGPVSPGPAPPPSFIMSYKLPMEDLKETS

- IC50 [1]: ≤ 100 nM
- IC50 [2]: 100 to 1000 nM
- IC50 [3]: ≤ 100 nM
SMILES: O=C(O)c1ccnc(-n2nccc2OCc2ccc(F)c(OCc3ccc(F)cc3)c2)c1

Source: ChEMBL document CHEMBL4256941, “Histone demethylase inhibitors” (2016)
